Laboratory results: publication PMC10489980, “Design of Potent and Salt-Insensitive Antimicrobial Branched Peptides” (Polymers, 2023)
Where two headings read alike, the source gives them in different places. Positions of bridges follow the written chain, without caps; N, C: chain ends. Residues, ends and D or L forms follow the SMILES beside them. Chains are numbered I, II in the order given. *: point of attachment. Fmoc = O=C(OCC1c2ccccc2-c2ccccc21)*

Experiments:
Type in all cases: cell-based
[1] = system: Candida albicans ATCC 37092
Excerpt: (§1) Ten organisms obtained from the American Type Culture Collection (ATCC; Rockville, MD) were used for antimicrobial assays. Four Gram-negative bacteria included Escherichia coli ATCC 25922, Pseudomonas aeruginosa ATCC 27853, Klebsiella oxytoca ATCC 49131, and Proteus vulgaris ATCC 49132. The three Gram-positive bacteria were Staphylococcus aureus 29213, Micrococcus luteus ATCC 49,732, and Enterococcus faecalis ATCC 29212. The three fungi were Candida albicans ATCC 37092, Candida kefyr ATCC 37095, and Candida tropicalis ATCC 37097. The clinical isolates were obtained from Singapore General Hospital (SGH). They are Enterococcus faecium, Staphylococcus aureus, Klebsiella pneumoniae, Acinetobacter baumannii, Pseudomonas aeruginosa, and Enterobacter species. The strains were incubated in trypticase soy broth (TSB), which was prepared in double distilled water and autoclaved for sterilization. TSB was purchased from Becton-Dickinson (Cockeysville, MD, USA).
(§2) Antimicrobial Assays. A sensitive and reproducible two-stage radial diffusion antimicrobial assay of Lehrer et al. was employed. A 1–4 × 10^6 colony-forming unit/mL of the test organism was mixed with 10 mL of molten underlay gel solution and poured into Petri dishes to form a uniform layer. The gel solution consisted of 10 mM sodium phosphate buffer, 0.03% TSB, and 0.02% Tween-20, with the addition of 100 mM NaCl in the case of high-salt conditions. Upon gel solidification, gel wells were made by a 3-mm diameter template in an evenly spaced array. A 5 µL aliquot of a serial half-log dilution of test peptides at seven concentrations was added to each well after removal of gel plugs. The dishes were incubated at 37 °C for 3 h to allow peptide diffusion into the underlay gels. Gels were overlaid with 10 mL of 1% agarose in 6% TSB (wt/vol). After additional incubation at 37 °C for 16–24 h, the diameter of the clear zone surrounding the wells (colony-free) was measured under a microscope. Antimicrobial activities were expressed in units (0.1 mm = 1 unit), and the MICs (in µM) were determined from the x-intercepts of the dose-response curves. Experiments were performed in triplicates.

Candida kefyr ATCC 37095 = system: Candida kefyr ATCC 37095
Excerpt: as §1, §2

[2] = system: Candida tropicalis ATCC 37097
Excerpt: as §1, §2

[3] = system: Enterococcus faecalis ATCC 29212
Excerpt: as §1, §2

[4] = system: Escherichia coli ATCC 25922
Excerpt: as §1, §2

[5] = system: Klebsiella oxytoca ATCC 49131
Excerpt: as §1, §2

[6] = system: Micrococcus luteus ATCC 49,732
Excerpt: as §1, §2

[7] = system: Proteus vulgaris ATCC 49132
Excerpt: as §1, §2

[8] = system: Pseudomonas aeruginosa ATCC 27853
Excerpt: as §1, §2

[9] = system: Staphylococcus aureus 29213
Excerpt: as §1, §2

SMILES	MIC, C. albicans, H-Salt ([1]; ATCC 37092, 3 h) [µM]	MIC, C. albicans, L-Salt ([1]; ATCC 37092, 3 h) [µM]	MIC, C. kefyr, H-Salt (Candida kefyr ATCC 37095; ATCC 37095, 3 h) [µM]	MIC, C. kefyr, L-Salt (Candida kefyr ATCC 37095; ATCC 37095, 3 h) [µM]	MIC, C. tropicalis, H-Salt ([2]; ATCC 37097, 3 h) [µM]	MIC, C. tropicalis, L-Salt ([2]; ATCC 37097, 3 h) [µM]	MIC, E. faecalis, H-Salt ([3]; ATCC 29212, 3 h) [µM]	MIC, E. faecalis, L-Salt ([3]; ATCC 29212, 3 h) [µM]	MIC, E. coli, H-Salt ([4]; ATCC 25922, 3 h) [µM]	MIC, E. coli, L-Salt ([4]; ATCC 25922, 3 h) [µM]	MIC, K. oxytoca, H-Salt ([5]; ATCC 49131, 3 h) [µM]	MIC, K. oxytoca, L-Salt ([5]; ATCC 49131, 3 h) [µM]	MIC, M. luteus, H-Salt ([6]; ATCC 49, 3 h) [µM]	MIC, M. luteus, L-Salt ([6]; ATCC 49, 3 h) [µM]	MIC, P. vulgaris, H-Salt ([7]; ATCC 49132, 3 h) [µM]	MIC, P. vulgaris, L-Salt ([7]; ATCC 49132, 3 h) [µM]	MIC, P. aeruginosa, H-Salt ([8]; ATCC 27853, 3 h) [µM]	MIC, P. aeruginosa, L-Salt ([8]; ATCC 27853, 3 h) [µM]	MIC, S. aureus, H-Salt ([9]; 29213, 3 h) [µM]	MIC, S. aureus, L-Salt ([9]; 29213, 3 h) [µM]	other results
CC(=O)NCCC[C@H](NC(=O)[C@H](CCCNC(=N)N)NC(=O)[C@H](Cc1ccc(O)cc1)NC(=O)[C@H](CC(C)C)NC(=O)[C@@H](N)CCCNC(=N)N)C(=O)NCCC[C@H](NC(=O)[C@H](CCCNC(=N)N)NC(=O)[C@H](Cc1ccc(O)cc1)NC(=O)[C@H](CC(C)C)NC(=O)[C@@H](N)CCCNC(=N)N)C(=O)NCCC[C@H](NC(=O)[C@H](CCCNC(=N)N)NC(=O)[C@H](Cc1ccc(O)cc1)NC(=O)[C@H](CC(C)C)NC(=O)[C@@H](N)CCCNC(=N)N)C(=O)NCCC[C@H](NC(=O)[C@H](CCCNC(=N)N)NC(=O)[C@H](Cc1ccc(O)cc1)NC(=O)[C@H](CC(C)C)NC(=O)[C@@H](N)CCCNC(=N)N)C(N)=O [iO4R] (HELM PEPTIDE1{R.L.Y.R.[Orn]}|PEPTIDE2{[ac]}|PEPTIDE3{R.L.Y.R.[Orn]}|PEPTIDE4{R.L.Y.R.[Orn]}|PEPTIDE5{R.L.Y.R.[Orn].[am]}$PEPTIDE1,PEPTIDE2,5:R3-1:R2|PEPTIDE1,PEPTIDE3,5:R2-5:R3|PEPTIDE3,PEPTIDE4,5:R2-5:R3|PEPTIDE4,PEPTIDE5,5:R2-5:R3$$$V2.0)	–	–	–	–	–	–	–	–	–	–	–	–	–	–	–	–	–	–	–	–	MIC, C. albicans, H-Salt ([1]; ATCC 37092, radial diffusion assay, high-salt (100 mM NaCl), triplicates): 1.4 µM; MIC, C. albicans, L-Salt ([1]; ATCC 37092, radial diffusion assay, low-salt (without NaCl), triplicates): 1.3 µM; MIC, C. kefyr, H-Salt (Candida kefyr ATCC 37095; ATCC 37095, radial diffusion assay, high-salt (100 mM NaCl), triplicates): 0.8 µM; MIC, C. kefyr, L-Salt (Candida kefyr ATCC 37095; ATCC 37095, radial diffusion assay, low-salt (without NaCl), triplicates): 0.8 µM; MIC, C. tropicalis, H-Salt ([2]; ATCC 37097, radial diffusion assay, high-salt (100 mM NaCl), triplicates): 0.8 µM; MIC, C. tropicalis, L-Salt ([2]; ATCC 37097, radial diffusion assay, low-salt (without NaCl), triplicates): 1.4 µM; MIC, E. faecalis, H-Salt ([3]; ATCC 29212, radial diffusion assay, high-salt (100 mM NaCl), triplicates): > 500 µM; MIC, E. faecalis, L-Salt ([3]; ATCC 29212, radial diffusion assay, low-salt (without NaCl), triplicates): 5.4 µM; MIC, E. coli, H-Salt ([4]; ATCC 25922, two-stage radial diffusion assay, high-salt (underlay gel 10 mM sodium phosphate, 0.03% TSB, 0.02% Tween-20, with 100 mM NaCl), 37 °C, x-intercept of dose-response curve, triplicates): 4.4 µM; MIC, E. coli, L-Salt ([4]; ATCC 25922, two-stage radial diffusion assay, low-salt (underlay gel 10 mM sodium phosphate, 0.03% TSB, 0.02% Tween-20, without NaCl), 37 °C, x-intercept of dose-response curve, triplicates): 0.9 µM; MIC, K. oxytoca, H-Salt ([5]; ATCC 49131, radial diffusion assay, high-salt (100 mM NaCl), triplicates): 6.8 µM; MIC, K. oxytoca, L-Salt ([5]; ATCC 49131, radial diffusion assay, low-salt (without NaCl), triplicates): 1.6 µM; MIC, M. luteus, H-Salt ([6]; ATCC 49,732, radial diffusion assay, high-salt (100 mM NaCl), triplicates): 2.0 µM; MIC, M. luteus, L-Salt ([6]; ATCC 49,732, radial diffusion assay, low-salt (without NaCl), triplicates): 2.1 µM; MIC, P. vulgaris, H-Salt ([7]; ATCC 49132, radial diffusion assay, high-salt (100 mM NaCl), triplicates): 23.2 µM; MIC, P. vulgaris, L-Salt ([7]; ATCC 49132, radial diffusion assay, low-salt (without NaCl), triplicates): 4.7 µM; MIC, P. aeruginosa, H-Salt ([8]; ATCC 27853, radial diffusion assay, high-salt (100 mM NaCl), triplicates): 4.0 µM; MIC, P. aeruginosa, L-Salt ([8]; ATCC 27853, radial diffusion assay, low-salt (without NaCl), triplicates): 4.4 µM; MIC, S. aureus, H-Salt ([9]; strain 29213, radial diffusion assay, high-salt (100 mM NaCl), triplicates): 4.8 µM; MIC, S. aureus, L-Salt ([9]; strain 29213, radial diffusion assay, low-salt (without NaCl), triplicates): 6.7 µM
CC(C)C[C@H](NC(=O)[C@@H](N)CCCNC(=N)N)C(=O)N[C@@H](Cc1ccc(O)cc1)C(=O)N[C@@H](CCCNC(=N)N)C(=O)NCCC[C@H](NC(=O)[C@H](CCCNC(=O)[C@H](CCCNC(=N)N)NC(=O)[C@H](Cc1ccc(O)cc1)NC(=O)[C@H](CC(C)C)NC(=O)[C@@H](N)CCCNC(=N)N)NC(=O)[C@H](CCCNC(=O)[C@H](CCCNC(=N)N)NC(=O)[C@H](Cc1ccc(O)cc1)NC(=O)[C@H](CC(C)C)NC(=O)[C@@H](N)CCCNC(=N)N)NC(=O)[C@H](CCCNC(=O)[C@H](CCCNC(=N)N)NC(=O)[C@H](Cc1ccc(O)cc1)NC(=O)[C@H](CC(C)C)NC(=O)[C@@H](N)CCCNC(=N)N)NC(=O)[C@H](CCCNC(=N)N)NC(=O)[C@H](Cc1ccc(O)cc1)NC(=O)[C@H](CC(C)C)NC(=O)[C@@H](N)CCCNC(=N)N)C(N)=O [O5R] (HELM PEPTIDE1{R.L.Y.R.[Orn].[Orn].[Orn].[Orn].[am]}|PEPTIDE2{R.L.Y.R}|PEPTIDE3{R.L.Y.R}|PEPTIDE4{R.L.Y.R}|PEPTIDE5{R.L.Y.R}$PEPTIDE1,PEPTIDE2,8:R3-4:R2|PEPTIDE1,PEPTIDE3,7:R3-4:R2|PEPTIDE1,PEPTIDE4,6:R3-4:R2|PEPTIDE1,PEPTIDE5,5:R3-4:R2$$$V2.0; N-terminus assumed)	1.5	0.9	0.7	0.7	0.7	1.1	> 500	10.2	2.3	0.9	2.4	1.8	1.7	1.3	19.2	8.1	3.1	2.0	6.5	5.4	–
CC(C)C[C@H](NC(=O)[C@@H](N)CCCNC(=N)N)C(=O)N[C@@H](Cc1ccc(O)cc1)C(=O)N[C@@H](CCCNC(=N)N)C(=O)N[C@@H](CCCCNC(=O)[C@H](CCCCNC(=O)[C@H](CCCCNC(=O)OCC1c2ccccc2-c2ccccc21)NC(=O)[C@H](CCCNC(=N)N)NC(=O)[C@H](Cc1ccc(O)cc1)NC(=O)[C@H](CC(C)C)NC(=O)[C@@H](N)CCCNC(=N)N)NC(=O)[C@H](CCCNC(=N)N)NC(=O)[C@H](Cc1ccc(O)cc1)NC(=O)[C@H](CC(C)C)NC(=O)[C@@H](N)CCCNC(=N)N)C(N)=O [iK3R] (I: H-RLYRK-NH2 / II: H-RLYRK(Fmoc) / III: H-RLYRK; amide I:5-III:C, II:C-III:5)	0.8	0.7	0.7	0.8	1.2	0.8	0.8	0.5	0.4	0.6	0.7	0.7	0.7	0.6	0.5	0.7	0.8	0.7	0.7	0.5	–
